Measured values reported in article PMC9964140, “Exploration of Succinimide Derivative as a Multi-Target, Anti-Diabetic Agent: In Vitro and In Vivo Approaches” (Molecules, 2023).

Tests used:
Antioxidant (DPPH) test = details: DPPH free radical scavenging
Method: For identifying free radicals and the scavenging potential of new organic compounds, Sigma Aldrich USA’s DPPH was employed. Methanol was employed as a solvent for preparing test samples of varying strengths of the examined substances. Two milliliters of the test sample’s variation strength were blended separately with two milliliters of the DPPH solution and 0.002% methanol. After being stored in the dark and at room temperature for 30 min, test tubes were examined using a UV spectrophotometer to measure the absorbance at 517 nm. As is customary, ascorbic acid was employed here, and the procedure was then repeated three times. Utilizing the formula below, the tested specimen’s scavenging activity was calculated: Scavenging activity % = (A − B)/A × 100. The letters “A” and “B” stand for the absorbance of the DPPH and the test sample, respectively. By plotting a graph of the scavenging effect of the tested compounds versus the concentration of the corresponding solution, IC50 values were determined.

mice = details: mouse, in vivo
Method: Prior to putting the drug through tests on lab animals, its acute toxicity was determined. Two groups of experimental mice, (1) the control group and (2) the test group, were used for this experiment. Each group consisted of five mice. It was conducted intraperitoneally with different concentrations of the chemical. The mice were then closely examined for three days in the animal home after the chemical was administered to check for death or any unfavorable reactions.

PTP1 B = target: T1, PTP1 B (Homo sapiens, UniProt P18031); experiment: Protein tyrosine phosphatase 1 B (PTP1 B) test; type: biochemical; details: ± SEM; pH 7, 40 min at 27 °C
T1 sequence (P18031 1-435): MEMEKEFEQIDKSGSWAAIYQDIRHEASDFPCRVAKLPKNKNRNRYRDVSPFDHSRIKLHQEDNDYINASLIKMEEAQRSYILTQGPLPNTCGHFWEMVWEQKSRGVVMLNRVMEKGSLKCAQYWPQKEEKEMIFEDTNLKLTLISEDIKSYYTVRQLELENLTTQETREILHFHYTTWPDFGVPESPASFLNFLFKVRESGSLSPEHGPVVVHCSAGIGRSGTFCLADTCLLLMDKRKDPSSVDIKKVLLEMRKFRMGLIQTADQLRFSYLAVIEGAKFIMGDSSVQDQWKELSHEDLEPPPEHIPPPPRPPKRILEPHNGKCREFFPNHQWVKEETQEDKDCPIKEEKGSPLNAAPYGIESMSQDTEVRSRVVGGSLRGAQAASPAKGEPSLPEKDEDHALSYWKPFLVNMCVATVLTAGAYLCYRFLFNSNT
Method: It is performed with a buffer solution of 3,3-dimethyl glutarate at a pH of 7. Additionally, a PTP1 B 10 mM solution, p-NO2-phenol phosphate of 1 mM, and numerous additional concentrations of the substance were made. As a result, the mixtures were incubated for 40 min at 27 °C. Then, measurements of the absorbances were conducted at 405 nm after the designated 40 min.

α-Glucosidase = experiment: Alpha-glucosidase test; type: biochemical; details: ± SEM
Method: A concentration of 0.5 mg/11 mL distilled water and a substrate solution of glucopyranoside at 15 mg/10 mL distilled water concentration were added to […] of a phosphate buffer and kept at 37 °C for 20 min, respectively, to prepare the sample. To prepare the control, 1200 μL of the phosphate buffer was added to the test tube. Next, 400 μL of the substrate solution (glucopyranoside 15 mg/10 mL distilled water) and 800 µL of an enzyme solution were mixed. At last, the temperature was kept at 37 °C for 20 min.

diabetic mice = experiment: In vivo anti-diabetic assay (blood glucose, 21 days); parameters: species or system albino mice
Text: For in vivo anti-diabetic efficacy, albino mice having weight of 30 g were employed. The animals utilized in experiments were compliant with the 2008 Animal Bye-Laws of the Pharmacy Department at the University of Malakand in Pakistan (Scientific Procedure Issue-I). The animals were handled according to accepted practices and housed in an animal facility during the experimental procedures. The animals were put to death following the experiment in accordance with AVMA rules.
The mice were given 10% alloxan monohydrate at a dose of 150 mg/kg body weight through IP in order to induce diabetes. The control group received a normal saline IP during this trial. Following the administration of alloxan, the animals’ blood glucose levels were checked using a glucometer. According to the protocols, in the in vivo study, mice with elevated blood sugar concentrations were also utilized.
(§1) The mice were placed into 4 groups, with 5 animals in each group having elevated blood glucose levels. Group I was the normal group, which had normal blood glucose levels and was given saline. Group II was treated with a Tween 80 solution; in this group, diabetic mice were kept. Glibenclamide was administered at a 500 μM/Kg dose to group III, which was the control group with diabetic mice. Group IV, the final group, received treatment with different concentrations of the produced substance. The mice were killed after three weeks (21 days) by cervical decapitation, and blood samples and organs were taken for H & E staining-based histological analysis and for bioassays.

DPP-4 = DPP-4 (Homo sapiens, UniProt P27487); experiment: Dipeptidyl peptidase-4 (DPP-4) fluorescence probe test; type: biochemical; details: ± SEM; read-out: IC50 DPP4
Method: Our compound’s inhibitory impact on the DPP-4 target was identified by a fluorescence probe in vitro assay. […] In a 96-well microplate reader, the test results were recorded. At first, various concentrations of the chemical were used to determine its action. Then, in accordance with the normal approach, a dose-dependent response was identified in order to estimate the IC50 value.

[1] = test system: STZ-induced diabetic mice; experiment: Body weight, insulin, lipid profile, serum markers and histopathology in STZ-induced diabetic mice; type: in vivo; details: for histopathology of liver, kidney and pancreas: H & E staining; for effect on body weight of diabetic mice: treated; for insulin levels: treated STZ-induced diabetic mice, untreated diabetic group 2.5 ± 0.15, normal control 13.5 ± 0.95
Method: as §1

α-Amylase = experiment: Alpha-amylase test; type: biochemical; details: ± SEM
Method: In order to evaluate the alpha-amylase test, standardized reporting protocols were followed [35]. In order to combine the enzyme and the phosphate buffer, test samples of varying strengths were added to the enzymatic solution. Incubation of the sample was followed by admixing of starch to both the control and test solutions and a dinitro salicylic acid solution. The sample combination was then maintained in a boiling water bath for a short period of time, and a microplate reader was used to measure the absorbance at 656 nm.
The formula below was used to calculate the α-amylase enzyme’s percentage inhibition capability: Percent Inhibition=Absorbance of Control − Absorbance of Sample ×100/Absorbance of Control

[2] = diabetic mice, compared to diabetic mice not given the medication

Sequence of DPP-4 (P27487 whole entry, species assumed): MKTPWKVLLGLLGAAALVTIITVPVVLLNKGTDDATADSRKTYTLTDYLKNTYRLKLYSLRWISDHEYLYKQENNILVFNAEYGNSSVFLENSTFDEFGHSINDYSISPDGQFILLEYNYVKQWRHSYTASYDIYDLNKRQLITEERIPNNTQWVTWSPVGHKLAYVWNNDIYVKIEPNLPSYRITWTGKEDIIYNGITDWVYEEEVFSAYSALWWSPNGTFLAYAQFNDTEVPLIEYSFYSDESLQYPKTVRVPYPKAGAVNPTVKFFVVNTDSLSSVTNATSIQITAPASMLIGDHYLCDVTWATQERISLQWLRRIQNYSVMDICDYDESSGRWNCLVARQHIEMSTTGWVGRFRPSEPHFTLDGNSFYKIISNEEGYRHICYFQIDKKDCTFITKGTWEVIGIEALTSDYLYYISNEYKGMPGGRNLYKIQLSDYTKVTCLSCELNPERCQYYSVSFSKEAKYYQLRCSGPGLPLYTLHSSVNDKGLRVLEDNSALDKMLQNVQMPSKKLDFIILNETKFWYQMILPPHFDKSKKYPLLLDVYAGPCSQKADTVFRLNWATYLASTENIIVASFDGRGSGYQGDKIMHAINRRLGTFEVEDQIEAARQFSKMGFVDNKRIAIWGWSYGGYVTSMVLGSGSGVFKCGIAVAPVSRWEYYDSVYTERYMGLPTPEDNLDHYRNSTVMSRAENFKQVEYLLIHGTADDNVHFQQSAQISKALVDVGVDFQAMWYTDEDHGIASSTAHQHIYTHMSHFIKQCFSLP

**Q.** With `O=C1O[C@H]([C@@H](O)CO)C(O)=C1O` [Ascorbic acid, reference compound] as the compound, how does the IC50 (Antioxidant (DPPH) test) read?
**A.** 1.44 ± 0.2 µM

**Q.** With `COc1cc(CC(C)=O)ccc1OC1CC(=O)N(Cc2ccccc2)C1=O` (stereo not shown) [Compound 3, 1-benzyl-3-(2-methoxy-4-(2-oxopropyl)phenoxy)pyrrolidine-2,5-dione] as the compound, how does the “acute toxicity: allergic reaction” value (mice) read?
**A.** no sign of an allergic reaction

**Q.** What about the acute toxicity outcome (mice; ip) of the same compound?
**A.** safe and had no adverse effects

**Q.** And the IC50 (PTP1 B)?
**A.** 13.2 ± 0.11 µM

**Q.** What about the IC50 (α-Glucosidase) of the same compound?
**A.** 7.2 ± 0.92 µM

**Q.** What about the “Blood Glucose Level 0 Day” value (diabetic mice; 15.625 µM/kg IP) of the same compound?
**A.** 22.7 mmole per Liter

**Q.** And the “Blood Glucose Level 7th Day” value (diabetic mice; 15.625 µM/kg IP)?
**A.** 19.7 mmole per Liter

**Q.** What about the “Blood Glucose Level 14th Day” value (diabetic mice; 15.625 µM/kg IP) of the same compound?
**A.** 17.6 mmole per Liter

**Q.** What about the “Blood Glucose Level 21st Day” value (diabetic mice; 15.625 µM/kg IP) of the same compound?
**A.** 15.1 mmole per Liter

**Q.** And the “Blood Glucose Level 0 Day” value (diabetic mice; 31.25 µM/kg IP)?
**A.** 22.9 mmole per Liter

**Q.** What about the “Blood Glucose Level 7th Day” value (diabetic mice; 31.25 µM/kg IP) of the same compound?
**A.** 19.1 mmole per Liter

**Q.** What about the “Blood Glucose Level 14th Day” value (diabetic mice; 31.25 µM/kg IP) of the same compound?
**A.** 17.1 mmole per Liter

**Q.** And the “Blood Glucose Level 21st Day” value (diabetic mice; 31.25 µM/kg IP)?
**A.** 13.6 mmole per Liter

**Q.** What about the “Blood Glucose Level 0 Day” value (diabetic mice; 62.5 µM/kg IP) of the same compound?
**A.** 23.2 mmole per Liter

**Q.** And the “Blood Glucose Level 7th Day” value (diabetic mice; 62.5 µM/kg IP)?
**A.** 19.3 mmole per Liter

**Q.** What about the “Blood Glucose Level 14th Day” value (diabetic mice; 62.5 µM/kg IP) of the same compound?
**A.** 16.7 mmole per Liter

**Q.** And the “Blood Glucose Level 21st Day” value (diabetic mice; 62.5 µM/kg IP)?
**A.** 13.1 mmole per Liter

**Q.** And the “Blood Glucose Level 0 Day” value (diabetic mice; 125 µM/kg IP)?
**A.** 22.6 mmole per Liter

**Q.** And the “Blood Glucose Level 7th Day” value (diabetic mice; 125 µM/kg IP)?
**A.** 18.9 mmole per Liter

**Q.** And the “Blood Glucose Level 14th Day” value (diabetic mice; 125 µM/kg IP)?
**A.** 16.2 mmole per Liter

**Q.** What about the “Blood Glucose Level 21st Day” value (diabetic mice; 125 µM/kg IP) of the same compound?
**A.** 12.8 mmole per Liter

**Q.** And the “Blood Glucose Level 0 Day” value (diabetic mice; 250 µM/kg IP)?
**A.** 22.4 mmole per Liter

**Q.** What about the “Blood Glucose Level 7th Day” value (diabetic mice; 250 µM/kg IP) of the same compound?
**A.** 18.4 mmole per Liter

**Q.** What about the “Blood Glucose Level 14th Day” value (diabetic mice; 250 µM/kg IP) of the same compound?
**A.** 15.7 mmole per Liter

**Q.** What about the “Blood Glucose Level 21st Day” value (diabetic mice; 250 µM/kg IP) of the same compound?
**A.** 12.2 mmole per Liter

**Q.** What about the IC50 (DPP-4) of the same compound?
**A.** 0.07 ± 0.03 µM

**Q.** What about the IC50 (Antioxidant (DPPH) test) of the same compound?
**A.** 3.31 ± 0.65 µM

**Q.** What about the body weight gain ([1]; STZ + compound 3 group (Tg-5), final vs initial day, diabetic group lost 1.9 ± 0.05 g) of the same compound?
**A.** 1.55 g

**Q.** And the BUN ([1]; STZ-induced diabetic mice)?
**A.** decreased the excess peak

**Q.** What about the HDL levels ([1]; STZ-induced diabetic mice) of the same compound?
**A.** raising HDL levels

**Q.** What about the LDL levels ([1]; STZ-induced diabetic mice) of the same compound?
**A.** dramatically reduced

**Q.** And the creatinine ([1]; STZ-induced diabetic mice)?
**A.** decreased the excess peak

**Q.** What about the “serum ALP” value ([1]; STZ-induced diabetic mice) of the same compound?
**A.** suppressed the enhanced rise

**Q.** And the “serum ALT” value ([1]; STZ-induced diabetic mice)?
**A.** suppressed the enhanced rise

**Q.** What about the “serum AST” value ([1]; STZ-induced diabetic mice) of the same compound?
**A.** suppressed the enhanced rise

**Q.** And the “histopathology of liver, kidney and pancreas” value ([1]; STZ-induced diabetic mice)?
**A.** healed from the histological injuries

**Q.** What about the “effect on body weight of diabetic mice” value ([1]; STZ-induced diabetic mice) of the same compound?
**A.** recovered their bodyweight

**Q.** And the “reduction of total cholesterol” value [1, 2]?
**A.** 34.9%

**Q.** And the “reduction of total triglycerides” value [1, 2]?
**A.** 35.20%

**Q.** What about the “effect on body weight of non-diabetic mice” value ([1]; non-diabetic group) of the same compound?
**A.** did not affect the body weights

**Q.** And the insulin levels [1]?
**A.** 10.9 ± 0.25 ng/mL

**Q.** What about the IC50 (α-Amylase) of the same compound?
**A.** 15.4 ± 0.15 µM

**Q.** For `COc1ccc(Cl)cc1C(=O)NCCc1ccc(S(=O)(=O)NC(=O)NC2CCCCC2)cc1` [Glibenclamide, reference compound], which “Blood Glucose Level 0 Day” value (diabetic mice; 250 µM/kg IP) is on record?
**A.** 21.5 mmole per Liter

**Q.** What about the “Blood Glucose Level 7th Day” value (diabetic mice; 250 µM/kg IP) of the same compound?
**A.** 17.7 mmole per Liter

**Q.** And the “Blood Glucose Level 14th Day” value (diabetic mice; 250 µM/kg IP)?
**A.** 14.5 mmole per Liter

**Q.** And the “Blood Glucose Level 21st Day” value (diabetic mice; 250 µM/kg IP)?
**A.** 11.1 mmole per Liter

**Q.** What does the source list for `CN(C)C(=N)N=C(N)N` [Metformin, reference compound]?
**A.** serum ALP ([1]; STZ-induced diabetic mice): suppressed the enhanced rise; serum ALT ([1]; STZ-induced diabetic mice): suppressed the enhanced rise; serum AST ([1]; STZ-induced diabetic mice): suppressed the enhanced rise; histopathology of liver, kidney and pancreas ([1]; STZ-induced diabetic mice): healed from the histological injuries; effect on body weight of diabetic mice ([1]; STZ-induced diabetic mice): recovered their bodyweight; insulin levels [1]: 12.2 ± 0.29 ng/mL
